According to patent publication US7148210B2, “Method of treating bone metastasis” (Trustees of Dartmouth College, priority 2002, dated 2006):
Where two headings read alike, the source gives them in different places. Marks after values point to notes of the source that are not given here.

Assays:
[1] = Monitoring of patients for adverse effects / tolerability; format: in vivo, human
Source text: (§1) This regime was maintained until the maximally tolerated dose (MTD) was reached.

[2] = ATP i.v. infusion dose escalation to maximally tolerated dose (present disclosure); format: in vivo, human; details: duration 8 hours
Source text: as §1
(§2) Patients were consenting adult patients with histologically/cytologically confirmed advanced hormone-refractory prostate cancer not curable by conventional therapies that fulfilled the standard phase 1 liver, renal and Karnofsky performance eligibility requirements. The patients also had to meet one of the two following requirements. A positive bone scan and/or imaging study for bone metastasis with accompanying bone pain had to be present with rising PSA values, identified in three consecutive PSA observations, following definitive surgery and/or radiation therapy and anti-androgen hormonal therapy. PSA levels (>10 ng/ml) and a positive bone scan and bone pain at time of initial diagnosis.
Average patient age was between 50 and 85 years of age. Patients were excluded if they met the standard phase 1 respiratory and cardiac exclusion criteria.
ATP infusion therapy was as described above.

[3] = test system: HRPA cells; details: preclinical observations, Janssens and Boeynaems (2001); Fang et al. (1992); cited from earlier work
[4] = test system: hormone-refractory prostate adenocarcinoma (HRPA); test: Blood PSA response in hormone-refractory prostate cancer patients with bone metastasis; format: in vivo, human
Method: Treatment of hormone-refractory prostate adenocarcinoma (HRPA) patients presents a complex combination of tumor and pain management. […] HRPA outcomes and PSA measurements were determined pre- and post-treatment within 25–45 days after Sm-153 administration.
[formula] PSA decreases of greater than 50% from baseline are associated with improved survivals in prostate cancer patients [Zyskowski, et al. (2001) Australas Radiol. 45:39; Kelly, et al. (1993) J. Clin. Oncol. 11:607).
The change in PSA was expressed as a ratio rather than a strict difference due to assumed relative changes. Furthermore, assumed multiplicative error provided that the variation of PSA levels increased with an increase in PSA levels. The combination of these two assumptions provided that the PSA responses be compared on the log scale. Furthermore, it is known that the log scale stabilizes the variance (Rosner, In: Fundamentals of Bio-statistics, 5th edition, Pacific Grove: Duxbury) and it has been observed that the variation in PSA among patients with prostate cancer is higher than in healthy (disease-free) controls.
This regime was maintained until the maximally tolerated dose (MTD) was reached. […]

[5] = cited from earlier work
[6] = test system: bone metastases; test: Clinical outcome in patients (bone pain, energy, bone scan); format: in vivo, human; details: Patient 1
Source text: as §2

For Nc1ncnc2c1ncn2[C@@H]1O[C@H](COP(=O)(O)OP(=O)(O)OP(=O)(O)O)[C@@H](O)[C@H]1O [ATP, Adenosine triphosphate], the tolerability ([1]; 8-hour infusion once weekly at 50 up to 100 μg/kg/minute) was “well tolerated by most patients”, the “hematocrit NADIR” value ([1]; Patient 1, 33% at start of trial, transfusion given at nadir) was 25% and the “side effects of ATP infusion” value ([1]; Patient 1, eight weekly i.v. infusions) was “minor side effects”. The MTD ([2]; Study 2, present disclosure) was 75 µg/kg/min, the MTD ([2]; Study 3, present disclosure) was 100 µg/kg/min and the “effect on HRPA cells in vitro” value [3] was “inhibits”. The “rate of PSA level increase during ATP treatments” value ([4]; Patient 1, eight weekly i.v. ATP infusions, no Sm-153, PSA at start 2732 ng/ml) was “stabilized”, the “PSA levels during ATP treatment” value ([4]; three advanced prostate cancer patients, i.v. infused ATP) was “stabilized” and the MTD ([5]; Study 1, Gaba (1990), incremental i.v. dose levels, each infusion 20 min.) was 125* μg/kg/min. The MTD ([5]; Study 4, Haskell et al. (1998), duration 96 hours) was 50 µg/kg/min, the MTD ([5]; Study 5, Agteresch et al. (2000), infused over 30 hours, start 20 μg/kg/min, increments of 10 every 30 minutes) was 65 to 75 µg/kg/min and the MTD ([5]; Study 6, Haskell et al. (1996), duration 96 hours) was 75 µg/kg/min. For the same compound, the “energy levels, exercise and activity” value ([6]; eighth week, 100 μg/kg/min × 8 hours) was “improved energy levels at home and improved exercise and activity” and the bone pain ([6]; end of the eight weeks of ATP therapy) was “continued to have bone pain”.
